# Test results published in patent US20260207623A1, “USE OF ESTETROL IN HEPATICALLY IMPAIRED PATIENTS” (ESTETRA SRL, priority 2022, published 2026).
# Entries after “also recorded” stand apart in the source; their conditions may differ. Where two headings read alike, the source gives them in different places.
# Assays:
# [1] = cited from earlier work
# post-menopausal women [2] = assay: Example 2: adverse events (AEs, TEAEs) per treatment group; assay type: in vivo, human
# Text: This is confirmed by the following statistical analysis. Using a Poisson regression model with a random effect for the patient and treatment group as a covariate to model the count of TEAEs in the different treatment groups, it can be shown that there is no statistical difference between the treatment groups (p value of 0.099). Second, a chi-square test was used to assess if the prevalence of patients reporting TEAEs in each treatment group was similar. No statistical difference was found between the treatment groups (p value of 0.575).
# fasting glucose = assay: Example 3: fasting glucose, change from baseline to week 12; assay type: in vivo, human
# [3] = tested on: C-Terminal Telopeptide (CTX-1); assay: Example 2 section F: C-terminal telopeptide (CTX-1), marker of bone resorption, at 15 mg and 20 mg daily doses; assay type: in vivo, human
# Method: In order to better assess the potential for increasing the daily dose beyond the minimum effective dose of 15 mg estetrol monohydrate daily, a number of parameters were followed in a study where estetrol monohydrate was administered at the increased dose of 20 mg per day.
# 6. C-Terminal Telopeptide (CTX-1) (Ng/L)
# CTX-1 is a specific marker of bone resorption.
# post-menopausal women [4] = assay: Example 3: menopause-specific Quality of Life (MENQOL) questionnaire; assay type: in vivo, human; conditions: compared to placebo treatment
compound,measurement,setting,value
"C[C@]12CC[C@@H]3c4ccc(O)cc4CC[C@H]3[C@@H]1[C@@H](O)[C@@H](O)[C@@H]2O [E4, 1,3,5 (10)-estratrien-3,15alpha, 16alpha, 17beta-tetrol]",dose up to which well tolerated and safe,[1]; given as a single dose,up to 100 mg
same,dose up to which well tolerated and safe,[1]; given once daily for 28 days,up to 40 mg
"C[C@]12CC[C@@H]3c4ccc(O)cc4CC[C@H]3[C@@H]1[C@@H](O)[C@@H](O)[C@@H]2O [E4 monohydrate, estetrol monohydrate]",Count of Treatment Emergent AEs (TEAEs),post-menopausal women [2]; 2.5 mg daily,61
same,Percentage of patients with TEAE leading to Study Discontinuation,post-menopausal women [2]; 2.5 mg daily,1.9
same,Percentage of patients with severe TEAE,post-menopausal women [2]; 2.5 mg daily,7.7
same,Count of Treatment Emergent AEs (TEAEs),post-menopausal women [2]; 5 mg daily,63
same,Percentage of patients with TEAE leading to Study Discontinuation,post-menopausal women [2]; 5 mg daily,6.4
same,Percentage of patients with severe TEAE,post-menopausal women [2]; 5 mg daily,10.6
same,Count of Treatment Emergent AEs (TEAEs),post-menopausal women [2]; 10 mg daily,95
same,Percentage of patients with TEAE leading to Study Discontinuation,post-menopausal women [2]; 10 mg daily,5.6
same,Percentage of patients with severe TEAE,post-menopausal women [2]; 10 mg daily,7.4
same,average AEs per patient among patients who had AEs,post-menopausal women [2]; 10 mg group,3.2 AEs per patient
same,Count of Treatment Emergent AEs (TEAEs),post-menopausal women [2]; 15 mg daily,82
same,Percentage of patients with TEAE leading to Study Discontinuation,post-menopausal women [2]; 15 mg daily,4.1
same,Percentage of patients with severe TEAE,post-menopausal women [2]; 15 mg daily,6.1
same,average AEs per patient among patients who had AEs,post-menopausal women [2]; 15 mg group,2.6 AEs
same,fasting glucose levels,"fasting glucose; 15 mg and 20 mg, after 12 weeks, monohydrate",decreased; also recorded: reduced
same,"Fasting Glucose, mean","fasting glucose; 15 mg, Baseline",5.156
same,"Fasting Glucose, mean","fasting glucose; 15 mg, Week 12",5.057
same,"Fasting Glucose, mean","fasting glucose; 20 mg, Baseline",5.177
same,"Fasting Glucose, mean","fasting glucose; 20 mg, Week 12",5.057
same,bone resorption (CTX-1),[3]; 15 mg daily dose,small decrease of bone resorption
same,bone resorption (CTX-1),"[3]; 20 mg daily dose, after 28 days of treatment, compared with 15 mg",more pronounced
same,total MENQOL scores,post-menopausal women [4],significantly improved
